Laboratory results as given in PMC10135964, “One Scaffold, Two Conformations: The Ring-Flip of the Messenger InsP8 Occurs under Cytosolic Conditions” (Biomolecules, 2023).

Key:
[1] = 1H,13C BIRD-HMQC NMR quantification of axial vs. equatorial conformer; assay type: physicochemical; details: pH* 7.5, 5 equiv. Ca2+, 130 mM KCl, 10 mM NaCl
[2] = 31P-NMR titrations of InsP8 (protonation, K+ and Mg2+ complex formation constants, HypNMR); assay type: physicochemical; details: for pH of the conformational change: 1 mM InsP8, 22 °C
Method: In order to create a system free of coordinating counterions, a batch of InsP8 was synthesized as described above, by enzymatic phosphorylation of 5PP-InsP5 and precipitation with Mg^2+, followed by Mg^2+ chelation on Amberlite® cation exchange resin. Unlike in the standard procedure, the resin was loaded with NMe4Cl instead of NH4CO3, resulting in a batch of InsP8 with non-coordinating NMe4^+ counterions. 1 mM EDTA was added to all ^31P-NMR titrations to chelate remaining traces of Mg^2+.
NMR-samples contained 1 mM InsP8, 1 mM EDTA, pH 3.0–12.5 (in H2O, steps of 0.5 pH units) and a) for the non-coordinating condition: 150 mM NMe4Cl or b) 150 mM KCl or c) 150 mM KCl and 1 mM MgCl2. Sealed glass capillaries containing 50 mM phosphonoacetic acid in D2O were added into the sample tubes for locking and chemical shift calibration.
^31P-NMR spectra were recorded at 295 K on a Bruker spectrometer (see above) operating at 600 MHz for protons and 244 MHz for phosphorous nuclei. SW: −40 ppm to −20 ppm, NS: 1024. Spectra at pH 3.0 were assigned by various 2D-NMR methods (Figure S5) and chemical shift changes were tracked across the pH range.
The data were analyzed using the HypNMR 2006 software (Hyperquad Limited, Lincoln, UK). Different possible stoichiometries were tested, and the final chemical models were selected on the basis of the σ parameter (scaled sum of square differences between predicted and experimental chemical shift values), the model confidence level estimator (chi square), and the internal consistency of data reflected in standard deviations of the formation constants. Species distribution diagrams were produced using the HySS program (Hyperquad Limited, Lincoln, UK).

VTC complex = tested on: VTC complex; parameters: method as in PMID 28186404; details: in vitro, VTC complex from budding yeast S. cerevisiae; cited from earlier work

proportion in axial conformation [1]: About 15%
pH of the conformational change ([2]; 150 mM K+): 8.5–9.0
pH of the transition to the equatorial conformation ([2]; 150 mM KCl and 1 mM MgCl2, 1 mM InsP8, 22 °C): ~8.5
log K, 2 K^+ + H5L^9− ↔ [K2(H5L)]^7− ([2]; 31P NMR, 22 °C, I = 0.15 M): 3.820(7)
log K, 3 K^+ + H4L^10− ↔ [K3(H4L)]^7− ([2]; 31P NMR, 22 °C, I = 0.15 M): 5.446(5)
log K, 4 K^+ + H2L^12− ↔ [K4(H2L)]^8− ([2]; 31P NMR, 22 °C, I = 0.15 M): 9.76(3)
log K, 5 K^+ + HL^13− ↔ [K5(HL)]^8− ([2]; 31P NMR, 22 °C, I = 0.15 M): 12.47(3)
log K, K^+ + H6L^8− ↔ [K(H6L)]^7− ([2]; 31P NMR, 22 °C, I = 0.15 M): 2.58(5)
log K, K^+ + H7L^7− ↔ [K(H7L)]^6− ([2]; 31P NMR, 22 °C, I = 0.15 M): 2.08(3)
log K, L^14− + 2 H^+ ↔ H2L^12− ([2]; 31P NMR, 22 °C, I = 0.15 M): 22.78(2)
log K, L^14− + 3 H^+ ↔ H3L^11− ([2]; 31P NMR, 22 °C, I = 0.15 M): 34.22(2)
log K, L^14− + 4 H^+ ↔ H4L^10− ([2]; 31P NMR, 22 °C, I = 0.15 M): 43.96(2)
log K, L^14− + 5 H^+ ↔ H5L^9− ([2]; 31P NMR, 22 °C, I = 0.15 M): 52.58(3)
log K, L^14− + 6 H^+ ↔ H6L^8− ([2]; 31P NMR, 22 °C, I = 0.15 M): 59.41(8)
log K, L^14− + 7 H^+ ↔ H7L^7− ([2]; 31P NMR, 22 °C, I = 0.15 M): 64.91(6)
log K, L^14− + 8 H^+ ↔ H8L^6− ([2]; 31P NMR, 22 °C, I = 0.15 M): 68.79(7)
log K, L^14− + H^+ ↔ HL^13− ([2]; 31P NMR, 22 °C, I = 0.15 M): 11.21(1)
log K, Mg^2+ + H2L^12− + 3 K^+ ↔ [MgK3(H2L)]^7− ([2]; 31P NMR, 22 °C, I = 0.15 M): 18.1(1)
log K, Mg^2+ + H4L^10− + 2 K^+ ↔ [MgK2(H4L)]^6− ([2]; 31P NMR, 22 °C, I = 0.15 M): 11.6(1)
log K, Mg^2+ + H5L^9− + K^+ ↔ [MgK(H5L)]^6− ([2]; 31P NMR, 22 °C, I = 0.15 M): 9.1(1)
log K, Mg^2+ + H6L^8− + K^+ ↔ [MgK(H6L)]^5− ([2]; 31P NMR, 22 °C, I = 0.15 M): 7.3(1)
log K, Mg^2+ + HL^13− + 4 K^+ ↔ [MgK4(HL)]^7− ([2]; 31P NMR, 22 °C, I = 0.15 M): 21.6(1)
log K, Mg^2+ + L^14− + 4 K^+ ↔ [MgK4L]^8− ([2]; 31P NMR, 22 °C, I = 0.15 M): 22.4(1)
negative charges carried ([2]; pH 7.4): 10–11
most abundant species ([2]; physiological pH range, 150 mM KCl and 1 mM MgCl2, 22 °C): [MgK3(H3L)]^6−
pH of the conformational change ([2]; without coordinating cations (150 mM NMe4Cl)): ~11
Compound: O=P(O)(O)O[C@@H]1[C@@H](OP(=O)(O)O)[C@H](OP(=O)(O)OP(=O)(O)O)[C@@H](OP(=O)(O)O)[C@H](OP(=O)(O)OP(=O)(O)O)[C@@H]1OP(=O)(O)O [InsP8, 1,5(PP)2-InsP4]
effectiveness at activating polyphosphate synthesis by the VTC complex (VTC complex): twenty-times more effective than 5PP-InsP5
